Data published in ChEMBL document CHEMBL3885861, “Open TG-GATES”.

Species on record: Rattus norvegicus
Assay: Open TG-GATES - Regimen: Daily Repeat
Type: toxicity, organism-based, Sprague-Dawley
Parameters: regimen Daily Repeat, gender Male, age 6 weeks
Details: in vivo, po, 1000 mg/kg, route gavage, dose level High; for APTT / Bas / Eos / Fbg / Hb / Ht / Lym / MCH / MCHC / MCV / Mono / Neu / PT / Plat / RBC / Ret / WBC: tissue Blood; for KIDNEY_L / KIDNEY_R / KIDNEY_TOTAL: tissue Kidney; for LIVER: tissue Liver; for A/G / ALP / ALT / AST / BUN / CRE / Ca / Cl / DBIL / GLC / IP / K / LDH / Na / PL / RALB / TBIL / TC / TG / TP / gamma-GTP: tissue Plasma

CN/C(=N/CCSCc1nc[nH]c1C)NC#N [CIMETIDINE]
TERMINAL_BW (72 h, time 3 day): 228.7 g | APTT (72 h, time 3 day): 18.9 s | Bas (72 h, time 3 day): 0% | Eos (72 h, time 3 day): 1% | Fbg (72 h, time 3 day): 228.6 mg/dL | Hb (72 h, time 3 day): 13.1 g/dL | Ht (72 h, time 3 day): 38.7% | Lym (72 h, time 3 day): 80.8% | MCH (72 h, time 3 day): 21.1 pg | MCHC (72 h, time 3 day): 33.8% | MCV (72 h, time 3 day): 62.3 fL | Mono (72 h, time 3 day): 2.6% | Neu (72 h, time 3 day): 14.8% | PT (72 h, time 3 day): 12.7 s | Plat (72 h, time 3 day): 135 x10_4/uL | RBC (72 h, time 3 day): 620.4 x10_4/ul | Ret (72 h, time 3 day): 5.4% | WBC (72 h, time 3 day): 96.4 x10_2/uL | KIDNEY_L (72 h, time 3 day): 1 g | KIDNEY_R (72 h, time 3 day): 1 g | KIDNEY_TOTAL (72 h, time 3 day): 2 g | LIVER (72 h, time 3 day): 11.5 g | A/G (72 h, time 3 day): 1.6 | ALP (72 h, time 3 day): 1004 IU/L | ALT (72 h, time 3 day): 40 IU/L | AST (72 h, time 3 day): 74 IU/L | BUN (72 h, time 3 day): 16.2 mg/dL | CRE (72 h, time 3 day): 0.4 mg/dL | Ca (72 h, time 3 day): 11 mg/dL | Cl (72 h, time 3 day): 102.8 meq/L | DBIL (72 h, time 3 day): 0.1 mg/dL | GLC (72 h, time 3 day): 201.6 mg/dL | IP (72 h, time 3 day): 7 mg/dL | K (72 h, time 3 day): 3.8 meq/L | LDH (72 h, time 3 day): 190.8 IU/L | Na (72 h, time 3 day): 140.8 meq/L | PL (72 h, time 3 day): 156.6 mg/dL | RALB (72 h, time 3 day): 3.4 g/dL | TBIL (72 h, time 3 day): 0.2 mg/dL | TC (72 h, time 3 day): 79.8 mg/dL | TG (72 h, time 3 day): 118.6 mg/dL | TP (72 h, time 3 day): 5.5 g/dL | gamma-GTP (72 h, time 3 day): 1.2 IU/L | TERMINAL_BW ([…], time 7 day): 263.6 g | TERMINAL_BW ([…], time 14 day): 302.5 g | TERMINAL_BW ([…], time 28 day): 396.8 g | APTT ([…], time 7 day): 16.9 s | Bas ([…], time 7 day): 0% | Eos ([…], time 7 day): 1% | Fbg ([…], time 7 day): 235.6 mg/dL | Hb ([…], time 7 day): 13.6 g/dL | Ht ([…], time 7 day): 40.7% | Lym ([…], time 7 day): 81% | MCH ([…], time 7 day): 21.1 pg | MCHC ([…], time 7 day): 33.5% | MCV ([…], time 7 day): 62.9 fL | Mono ([…], time 7 day): 2.6% | Neu ([…], time 7 day): 14.4% | PT ([…], time 7 day): 12.6 s | Plat ([…], time 7 day): 121.2 x10_4/uL | RBC ([…], time 7 day): 646.4 x10_4/ul | Ret ([…], time 7 day): 5% | WBC ([…], time 7 day): 94.8 x10_2/uL | APTT ([…], time 14 day): 20.1 s | Bas ([…], time 14 day): 0% | Eos ([…], time 14 day): 1% | Fbg ([…], time 14 day): 225.8 mg/dL | Hb ([…], time 14 day): 14.2 g/dL | Ht ([…], time 14 day): 43.3% | Lym ([…], time 14 day): 80.8% | MCH ([…], time 14 day): 19.5 pg | MCHC ([…], time 14 day): 32.6% | MCV ([…], time 14 day): 59.7 fL | Mono ([…], time 14 day): 2.2% | Neu ([…], time 14 day): 15.4% | PT ([…], time 14 day): 12.9 s | Plat ([…], time 14 day): 128 x10_4/uL | RBC ([…], time 14 day): 726.4 x10_4/ul | Ret ([…], time 14 day): 4.3% | WBC ([…], time 14 day): 110.4 x10_2/uL | APTT ([…], time 28 day): 19.4 s | Bas ([…], time 28 day): 0% | Eos ([…], time 28 day): 1.6% | Fbg ([…], time 28 day): 216.2 mg/dL | Hb ([…], time 28 day): 14.9 g/dL | Ht ([…], time 28 day): 43.2% | Lym ([…], time 28 day): 83.4% | MCH ([…], time 28 day): 19 pg | MCHC ([…], time 28 day): 34.4% | MCV ([…], time 28 day): 55.3 fL | Mono ([…], time 28 day): 2% | Neu ([…], time 28 day): 12.6% | PT ([…], time 28 day): 13.2 s | Plat ([…], time 28 day): 102.4 x10_4/uL | RBC ([…], time 28 day): 782 x10_4/ul | Ret ([…], time 28 day): 2.9% | WBC ([…], time 28 day): 177.7 x10_2/uL | KIDNEY_L ([…], time 7 day): 1.1 g | KIDNEY_R ([…], time 7 day): 1.1 g | KIDNEY_TOTAL ([…], time 7 day): 2.2 g | KIDNEY_L ([…], time 14 day): 1.2 g | KIDNEY_R ([…], time 14 day): 1.3 g | KIDNEY_TOTAL ([…], time 14 day): 2.5 g | KIDNEY_L ([…], time 28 day): 1.4 g | KIDNEY_R ([…], time 28 day): 1.4 g | KIDNEY_TOTAL ([…], time 28 day): 2.8 g | LIVER ([…], time 7 day): 12.9 g | LIVER ([…], time 14 day): 14.1 g | LIVER ([…], time 28 day): 16.4 g | A/G ([…], time 7 day): 1.4 | ALP ([…], time 7 day): 1073 IU/L | ALT ([…], time 7 day): 38.4 IU/L | AST ([…], time 7 day): 72.2 IU/L | BUN ([…], time 7 day): 17 mg/dL | CRE ([…], time 7 day): 0.5 mg/dL | Ca ([…], time 7 day): 11 mg/dL | Cl ([…], time 7 day): 101.8 meq/L | DBIL ([…], time 7 day): 0.096 mg/dL | GLC ([…], time 7 day): 216 mg/dL | IP ([…], time 7 day): 7.9 mg/dL | K ([…], time 7 day): 4 meq/L | LDH ([…], time 7 day): 279.2 IU/L | Na ([…], time 7 day): 140.4 meq/L | PL ([…], time 7 day): 165.8 mg/dL | RALB ([…], time 7 day): 3.3 g/dL | TBIL ([…], time 7 day): 0.1 mg/dL | TC ([…], time 7 day): 79.4 mg/dL | TG ([…], time 7 day): 134.4 mg/dL | TP ([…], time 7 day): 5.6 g/dL | gamma-GTP ([…], time 7 day): 1.8 IU/L | A/G ([…], time 14 day): 1.4 | ALP ([…], time 14 day): 808 IU/L | ALT ([…], time 14 day): 31.2 IU/L | AST ([…], time 14 day): 62.2 IU/L | BUN ([…], time 14 day): 19 mg/dL | CRE ([…], time 14 day): 0.4 mg/dL | Ca ([…], time 14 day): 10.7 mg/dL | Cl ([…], time 14 day): 101.8 meq/L | DBIL ([…], time 14 day): 0.1 mg/dL | GLC ([…], time 14 day): 213.4 mg/dL | IP ([…], time 14 day): 7.7 mg/dL | K ([…], time 14 day): 3.7 meq/L | LDH ([…], time 14 day): 186.8 IU/L | Na ([…], time 14 day): 141 meq/L | PL ([…], time 14 day): 165.6 mg/dL | RALB ([…], time 14 day): 3.4 g/dL | TBIL ([…], time 14 day): 0.2 mg/dL | TC ([…], time 14 day): 85.8 mg/dL | TG ([…], time 14 day): 111.2 mg/dL | TP ([…], time 14 day): 5.8 g/dL | gamma-GTP ([…], time 14 day): 1.8 IU/L | A/G ([…], time 28 day): 1.1 | ALP ([…], time 28 day): 637.6 IU/L | ALT ([…], time 28 day): 40 IU/L | AST ([…], time 28 day): 66.6 IU/L | BUN ([…], time 28 day): 20.4 mg/dL | CRE ([…], time 28 day): 0.6 mg/dL | Ca ([…], time 28 day): 10.2 mg/dL | Cl ([…], time 28 day): 101 meq/L | DBIL ([…], time 28 day): 0.1 mg/dL | GLC ([…], time 28 day): 284 mg/dL | IP ([…], time 28 day): 8.1 mg/dL | K ([…], time 28 day): 3.5 meq/L | LDH ([…], time 28 day): 178.2 IU/L | Na ([…], time 28 day): 140 meq/L | PL ([…], time 28 day): 158.2 mg/dL | RALB ([…], time 28 day): 3.1 g/dL | TBIL ([…], time 28 day): 0.2 mg/dL | TC ([…], time 28 day): 77.8 mg/dL | TG ([…], time 28 day): 113.6 mg/dL | TP ([…], time 28 day): 5.9 g/dL | gamma-GTP ([…], time 28 day): 1.4 IU/L
